Assay [1] deals with Nannochloropsis. In words: hypochlorite kill curve: dry biomass productivity of laboratory Nannochloropsis cultures. In kind it is cell-based. As to conditions: for Mean Productivity of Nannochloropsis: daily addition. How it is done: Algal cultivation: 800 ml cultures are maintained in one inch thick Roux flasks with continuous magnetic stirring. Continuous illumination at 700 MicroEinsteins per meter squared per second is provided by four 54-watt T5 fluorescent bulbs rated with a correlated color temperature of […]. 1% CO2 is bubbled through […] rate sufficient to maintain a pH between 7.0 and 8.5. Photoautotrophic growth is maintained on UFM media formulated with artificial seawater (35 g/L Instant Ocean) containing 720 mg/L urea, 168 mg/L K2HPO4, 1.5 ml/L of a metals solution and 1 ml/L of a vitamin solution. The metals solution contains 39.7 g/L Fe(III)Cl3(6H2O), 30.0 g/L EDTA, 1.2 g/L MnCl2(4H2O), 0.08 g/L CoCl2(6H2O), 0.16 g/L ZnSO4(7H2O), 0.067 g/L CuSO4(5H2O), 0.023 g/L Na2MoO4(2H2O). The vitamins solution contains 0.001 g/L vitamin B12, 0.001 g/L Biotin, and 0.2 g/L Thiamine. Cultures are diluted by exchanging 400 ml of culture with fresh media every day at the same time. From the 400 ml that are removed, the dry biomass concentration is determined as below. Determination of culture biomass concentration: A sample of the culture between 0.5 and five milliliters is vacuum filtered through a pre-rinsed and pre-ashed Whatman GF/C glass microfiber filter disc. The cake is rinsed with twenty milliliters of 0.7M ammonium formate and dried for at least 2 hours at 105° C. The dried sample is weighed on an analytical balance and then ashed at 550° C. for at least 1 hour. The post ash weight is subtracted from the pre-ash weight and divided by the volume of the sample to get the ash-free dry biomass density in milligrams per milliliter. Given the dilution volume and the previous day's dry biomass concentration, the current day's dry biomass concentration can be used to establish the culture's dry biomass productivity in grams per liter per day. This productivity value can then be compared across different experimental conditions. For the hypochlorite kill curve, four cultures are measured for productivity as above, each of which receives a different dose of sodium hypochlorite with the fresh media that is added at dilution time. The final concentration of sodium hypochlorite following dilution for each of the four cultures is 0, 20, 40 and 80 milligrams per liter.

The test system of assay [2] is predators (amoeba, protozoa, and crustaceans). The assay is described as follows: outdoor open pond cultivation with chlorine addition: growth of introduced predators. As to conditions: 2.5-3 mg every other day, 22-24 PPT. As for the experimental part: (§1) In the following examples, Nannochloropsis was grown in outdoor, open, ponds in Vero Beach, Fla. The climate in Vero Beach is semitropical, with mild winters and hot, humid summers. It is a challenging climate for keeping outdoor algal cultures stable and productive. The overnight warmth encourages predation by protozoa, rotifers, and crustaceans. The humidity allows the airborne transport of competing algae, and thus increases the rate of invasion. In some of the examples the techniques applied were successful in keeping Nannochloropsis as the dominant alga, at ninety-five percent (95%) to nearly one-hundred percent (100%) of the algal biomass, even when competitors and/or predators were intentionally introduced to the algae cultivation system. In some cases, predators were undetectable most of the time, even after they were intentionally introduced.
Ten ponds (four 1.4 square meter, four 3 square meter, and two approximately 200 square meter) were used to test many conditions of salinity and chlorination over fifteen months. Not all of the conditions were run for that whole time period. The results from the following seven conditions are summarized below: 1) 35-36 PPT (full) seawater salinity, 2) 28-30 PPT (dilution of full seawater with fresh water in a ratio of 3:1), 3) 22-24 PPT (dilution of full seawater with fresh water in a ratio of about 2:1), 4) condition no. […]

The subject of assay [3] is Nannochloropsis. The assay is described as follows: outdoor open pond cultivation with chlorine addition (condition four). How it is done: Chlorine compounds may be added directly to the cultivation vessel. They may be added to the water of dilution of the cultivation vessel. In either case they may be added in solid (granular) form, liquid form, or as chlorine gas. In experiments performed by the inventors, the chlorine was added as a liquid (e.g., sodium hypochlorite). Typically, 10-12% solutions of sodium hypochlorite were diluted 10 to 100 fold and added directly to the cultivation reactor to achieve the initial concentration of sodium hypochlorite cited in each case.
as §1
Ten ponds (four 1.4 square meter, four 3 square meter, and two approximately 200 square meter) were used to test many conditions of salinity and chlorination over fifteen months. Not all of the conditions were run for that whole time period. The results from the following seven conditions are summarized below: 1) 35-36 PPT (full) seawater salinity, 2) 28-30 PPT (dilution of full seawater with fresh water in a ratio of 3:1), 3) 22-24 PPT (dilution of full seawater with fresh water in a ratio of about 2:1), 4) condition no. 3 with chlorine added to the pond every other day to an initial concentration of sodium hypochlorite of 3 ppm, 5) 10-12 PPT (dilution of full seawater with fresh water in a ratio of about 1:2), 6) 5-7 PPT (dilution of full seawater with fresh water in a ratio of about 1:6. and 7) about 1 PPT (dilution of seawater with fresh water in a ratio of about 1:40).
Condition four was run from Oct. 4, 2007 until Jun. […] Commercial chlorine solutions were added to the algae cultivation systems every other day to obtain an initial concentration of 2.5-3 mg of sodium hypochlorite. […] The Nannochloropsis was cultivated without interruption and at greater than 95% dominance, throughout the entire cultivation period (over eight months). […] Species added included Tetraselmis and Dunaliella, along with amoeba, protozoa, and crustaceans. The Tetraselmis and Dunaliella cultures were decimated by the predators. The predators were not observable in the Nannochloropsis cultures after a few days.

SMILES strings stand for the structures.

`OCl` [sodium hypochlorite]: in assay [1] (above 80 milligrams/liter, exposure not prolonged), the “survival of Nannochloropsis cultures after extremely high exposure” value is recorded as “recover”. Besides, the “productivity of Nannochloropsis in the first two days following administration” value in assay [1] (at least 80 milligrams/liter) is “zero productivity”. Besides, the “time for Nannochloropsis to recover after shock injection” value in assay [1] (shock amount, initial concentration 40-80 milligrams/liter or higher) is “two to three”. Besides, the “Mean Productivity of Nannochloropsis” value in assay [1] (sodium hypochlorite 20 Milligrams/Liter) is listed as 570 Milligrams/Liter/Day; in assay [1] (sodium hypochlorite 40 Milligrams/Liter) it was 460 Milligrams/Liter/Day; in assay [1] (sodium hypochlorite 80 Milligrams/Liter), 0 Milligrams/Liter/Day. In addition, in assay [2], the “growth of predators added to the chlorinated cultures” value is “No predators were able to grow”. In addition, in assay [3] (2.5-3 mg every other day, 22-24 PPT, over eight months), the “Nannochloropsis dominance throughout the cultivation period” value was “greater than 95%”. Moreover, the “contamination versus non-chlorinated cultures at the same salinity” value in assay [3] (22-24 PPT, cooler months) is “no observable difference”; in assay [3] (22-24 PPT, warmer months of the year) it was “less contamination than non-chlorinated cultures”. In addition, the “culture stability over the run” value in assay [3] (condition four, about 250 days) is on record as “without stability problems”. In addition, the “effect on productivity compared to condition three with no added chlorine” value in assay [3] (initial concentration 2.5-3 mg every other day, salinity 22-24 PPT) is “often had no effect on productivity”.

The record behind these values is patent US8940340B2, “Systems and methods for maintaining the dominance of Nannochloropsis in an algae cultivation system” (Aurora Algae, Inc., priority 2009, dated 2015).
